Test results taken from patent US8609688B2, “Substituted imidazopyridinyl-aminopyridine compounds” (ArQule, Inc., priority 2011, dated 2013).

Legend:
[1] = molecular target: T1, Full-length inactive AKT1 (Homo sapiens (Human), UniProt P31749); experiment: Thermal Shift Assay (protein-ligand binding); conditions: Kd at 25° C. calculated using constant ligand binding enthalpy −15 kcal/mol; 15 μM compound, ANS dye
Description: Binding analysis. Protein-ligand binding was identified with the thermal shift assay which is based on the ligand-induced stabilization of the protein tertiary structure. The thermal stability of the ligand-Akt1 complex was assessed by subjecting the complex to a set temperature gradient and by comparison of the meltion temperature of the Akt1-ligand complex with the melting temperature of the protein alone. Protein unfolding was monitored by the fluorescence readout of an environmentally sensitive fluorescent dye, 1-anilinonaphthalene-8-sulfonic acid (ANS). […] The PCR plate was placed into a RT-PCR instrument and a temperature gradient was performed, increasing from 27 to 80° C., at 1° C./30 sec heat rate with a dwell time of 20 sec. The change in ANS fluorescence was measured using the filter set of 475 nm/525 nm excitation/emission.

Phospho-Akt (S473) = experiment: Cell ELISA Assay, Phospho-Akt detection; assay type: cell-based; conditions: cells treated for 1 hour, cell line not stated
Description: Phospho-Akt detection analysis. Phospho-Akt (S473) was detected using cell ELISA. Briefly, cells were plated in a 96-well plate at 7,000-10,000 cells per well, cultured for 2-3 days in complete growth medium, and then treated with various drugs or combinations of drugs for 1 hour. The cells were fixed with ice-cold methanol, and washed with TBS supplemented with 1% H2O2. Phospho-Akt (S473) was probed with corresponding rabbit antibody as a primary antibody, and horseradish peroxidase conjugated goat anti-rabbit IgG. After treatment with SuperSignal® ELISA for 15 minutes, the detection was performed using a luminometer. Data were normalized to untreated controls and analyzed with Microsoft Excel.

cells = experiment: Cell proliferation / viability GI50 (MTS assay or ATP quantitation assay); assay type: cell-based; conditions: 72 hours treatment; cell line and assay (MTS or ATP quantitation) not stated
Description: Cell proliferation analysis. Cell survival was determined by the MTS assay. Briefly, cells were plated in a 96-well plate at 2,000-10,000 cells per well, cultured for 24 hours in complete growth medium, and then treated with various drugs and drug combinations for 72 hours. MTS was added and incubated for 4 hour, followed by assessment of cell viability using the microplate reader at 570 nm. Data were normalized to untreated controls and analyzed with Microsoft Excel.
Cell viability analysis. Cell viability was determined by the ATP quantitation assay. Briefly, cells were plated in a 96-well plate at 2,000-10,000 cells per well, cultured for 24 hours in complete growth medium, and then treated with various drugs or combination of drugs for 72 hours. CellTiter-Glo® reagent was added and incubated at room temperature for 10 minutes, followed by assessment of cell viability using a luminometer. Data were normalized to untreated controls and analyzed with Microsoft Excel.

[2] = molecular target: T1, Full-length inactive AKT1; experiment: Inactive Akt Alpha Screen Assay; conditions: 8 nM inactive Akt1 activated by PDK1 and MAPKAPK2, lipid vesicles, 50 μM ATP, biotinylated crosstide; read-out: Akt1 biochemical assay IC50 AlphaScreen crosstide
Description: AKT1 activity was assayed using the GSK3-derived biotinylated peptide substrate, crosstide (biotin-[…]), and AlphaScreen™ (Amplified Luminescent Proximity Homogeneous Assay) technology. AKT1 activation was achieved by the addition of the activating kinases PDK1 and MAPKAPK2, lipid vesicles, and ATP. The extent of peptide phosphorylation was determined using a phospho-AKT substrate antibody and acceptor beads conjugated to Protein A and donor beads conjugated to streptavidin that bind to the biotin on the peptide. Excitation of the donor beads converted ambient oxygen to excited singlet oxygen which, when in close proximity to acceptor beads, reacted with acceptor beads resulting in signal amplification.
After a 20 minute pre-incubation at room temperature, the kinase reaction was initiated by the addition of 5 μL of an activation mixture diluted in assay buffer containing biotinylated crosstide, PDK1, MAPKAPK2, DOPS/DOPC, PtdIns(3,4,5)P3, and ATP for final concentrations of 60 nM biotinylated crosstide, 0.1 nM PDK1, 0.7 nM MK2, 5.5 μM DOPS, 5.5 μM DOPC, 0.5 μM PtdIns(3,4,5)P3, and 50 μM ATP. The plates were incubated for 30 minutes at room temperature, and then stopped in the dark by the addition of 10 μL stop/detection mixture prepared in assay buffer containing EDTA, AlphaScreen™ Streptavidin Donor and Protein A Acceptor beads, and phospho-AKT substrate antibody for final concentrations of 10 mM EDTA, 500 ng/well of both AlphaScreen™ Streptavidin Donor beads and Protein A Acceptor beads, and phospho-AKT substrate antibody at a final dilution of 1:350. Assay plates were incubated for 90 minutes at room temperature in the dark, and the plates were read on a Perkin Elmer Envision Multilabel plate reader (excitation wavelength: 640 nm, emission wavelength: 570 nm). […]

T1 sequence (P31749 whole entry): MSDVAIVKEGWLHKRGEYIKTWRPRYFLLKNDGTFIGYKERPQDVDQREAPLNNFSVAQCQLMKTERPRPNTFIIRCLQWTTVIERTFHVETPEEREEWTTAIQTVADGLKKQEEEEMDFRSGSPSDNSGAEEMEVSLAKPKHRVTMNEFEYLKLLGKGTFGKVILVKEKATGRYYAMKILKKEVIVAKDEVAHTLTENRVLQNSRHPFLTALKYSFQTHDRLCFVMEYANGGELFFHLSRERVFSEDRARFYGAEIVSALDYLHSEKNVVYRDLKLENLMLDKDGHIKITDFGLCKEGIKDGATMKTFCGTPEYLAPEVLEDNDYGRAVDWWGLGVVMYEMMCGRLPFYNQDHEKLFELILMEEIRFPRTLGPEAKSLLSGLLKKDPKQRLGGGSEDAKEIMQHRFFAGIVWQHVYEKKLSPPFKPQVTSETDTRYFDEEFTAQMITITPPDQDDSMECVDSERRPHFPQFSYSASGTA

SMILES: Nc1ncccc1-c1nc2ccc(-c3cccc(N4CCN(C(=O)C5CC5)CC4)c3)nc2n1-c1ccc(C2(N)CCC2)cc1 [Cmpd 14, (4-(3-(3-(4-(1-aminocyclobutyl)phenyl)-2-(2-aminopyridin-3-yl)-3H-imidazo[4,5-b]pyridin-5-yl)phenyl)piperazin-1-yl)(cyclopropyl)methanone]
- Kd [1]: 1.1 nM
- IC50 (Phospho-Akt (S473)): 11 nM
- GI50 (cells): 296000 nM
- IC50 [2]: 1.84 nM
